Measurements from paper PMC11964933, “Site-specific activation of the proton pump inhibitor rabeprazole by tetrathiolate zinc centres” (Nature Chemistry, 2025).
Numbering of substitutions follows the chain as printed.

Columns and labels:
[1] = molecular target: T1, SBP-DENR (SBP-DENR* = C13A/C132A/C154A) (Homo sapiens, UniProt O43583); experiment: affinity purification and click Cy5 in-gel labelling; format: cell-based; settings: covalent; intact HEK293 MSR cells, 10 µM, 15 min, 37 °C
T1 sequence (O43583 1-198): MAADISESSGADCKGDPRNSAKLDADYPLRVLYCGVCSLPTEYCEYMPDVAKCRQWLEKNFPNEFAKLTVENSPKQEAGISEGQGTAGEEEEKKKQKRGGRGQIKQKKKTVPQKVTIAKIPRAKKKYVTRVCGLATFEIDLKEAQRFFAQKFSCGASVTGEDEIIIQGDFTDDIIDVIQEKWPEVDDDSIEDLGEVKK

[2] = molecular target: T2, His-DENR–MCTS1 complex (recombinant WT DENR; DENR* = C13A/C132A/C154A) (Homo sapiens, UniProt O43583); experiment: in-gel Cy5 labelling after click chemistry; format: binding; settings: covalent; with NEM; zinc-dependent
T2 construct: His-tagged DENR co-expressed with MCTS1 in Escherichia coli; heterodimeric complex; C4 zinc site C34/C37/C44/C53
T2 sequence (O43583 2-198): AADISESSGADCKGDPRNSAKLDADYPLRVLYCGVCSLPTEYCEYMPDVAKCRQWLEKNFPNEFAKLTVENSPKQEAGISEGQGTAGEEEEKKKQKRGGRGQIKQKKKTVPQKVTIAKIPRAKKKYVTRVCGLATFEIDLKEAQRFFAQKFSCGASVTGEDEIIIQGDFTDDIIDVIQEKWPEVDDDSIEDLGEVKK
T2 sequence (Q9ULC4 1-181 partner): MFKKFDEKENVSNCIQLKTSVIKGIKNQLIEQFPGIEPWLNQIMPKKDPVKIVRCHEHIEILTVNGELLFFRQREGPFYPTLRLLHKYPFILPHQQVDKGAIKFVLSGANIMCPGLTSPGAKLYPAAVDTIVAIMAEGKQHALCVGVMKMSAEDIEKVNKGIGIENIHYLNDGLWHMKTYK

[3] = molecular target: T2, His-DENR–MCTS1 complex (recombinant WT DENR; DENR* = C13A/C132A/C154A); experiment: LC-MS/MS adduct mapping; format: binding; settings: covalent; fivefold excess, iodoacetamide, 15 min, r.t., pH 7.5; sites C44 and C34
[4] = molecular target: T3, His-DENR–MCTS1 complex (recombinant WT DENR; DENR* = C13A/C132A/C154A) (Homo sapiens, UniProt O43583, C13A/C132A/C154A); experiment: differential alkylation LC-MS; intact protein MS; Zn release (PAR); format: binding; settings: covalent; 25 µM rabeprazole, fivefold excess, 15 min, r.t., pH 7.5; site C44
T3 construct: His-tagged DENR co-expressed with MCTS1 in Escherichia coli; heterodimeric complex; C4 zinc site C34/C37/C44/C53
T3 sequence (O43583 2-198 C13A/C132A/C154A): T2 sequence (O43583 2-198) with C12A, C131A, C153A
T3 sequence (Q9ULC4 1-181 partner): T2 sequence (Q9ULC4 1-181 partner)

[5] = molecular target: T4, 15N-labelled DENR26–98–MCTS1 complex (Homo sapiens, UniProt O43583); experiment: 1H NMR and 1H-15N HSQC; format: binding; settings: covalent; fivefold excess, pH 7.5, 298 K
T4 construct: gene DENR; DENR residues 26-98, 15N-labelled, in complex with MCTS1
T4 sequence (O43583 26-98): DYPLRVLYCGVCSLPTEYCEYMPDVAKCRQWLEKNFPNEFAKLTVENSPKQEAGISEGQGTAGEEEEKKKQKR
T4 sequence (Q9ULC4 1-181 partner): T2 sequence (Q9ULC4 1-181 partner)

| Structure (SMILES) | affinity purification and click Cy5 in-gel labelling [1] | in-gel Cy5 labelling after click chemistry [2] | LC-MS/MS adduct mapping [3] | occupancy [4] | 1H NMR and 1H-15N HSQC [5] |
| --- | --- | --- | --- | --- | --- |
| Cc1c(OCCCN=[N+]=[N-])ccnc1C[S+]([O-])c1nc2ccccc2[nH]1 (centres unmarked) [Rabazi] | led to the formation of an SBP-DENR–Rabazi disulfide conjugate | Rabazi conjugation to recombinant DENR leads to a rather weak and diffuse band |  |  |  |
| COCCCOc1ccnc(C[S+]([O-])c2nc3ccccc3[nH]2)c1C (centres unmarked) [rabeprazole] |  |  | we identified the hydrolysed form of rabeprazole on cysteines C44 | ~ 80% | DENR exhibited time-dependent chemical shift perturbations of the amide peaks during incubation with rabeprazole |
